{
  "source": "paper PMC7127754",
  "about": "(Bioorganic & Medicinal Chemistry, 2008)",
  "biological_target": "SARS-CoV 3CL protease (Severe acute respiratory syndrome coronavirus, UniProt P0C6X7)",
  "test": "biochemical",
  "conditions": "IC50 (inhibition of SARS-CoV 3CL protease)",
  "data": [
    {"smiles": "C[C@H](NC(=O)CC[C@H](NC(=O)OC(C)(C)C)C(=O)OC(C)(C)C)C(=O)NCC(=O)C(F)(F)F", "note": "[Compound 5d, 3-{N-[N-tert-Butoxycarbonyl-L-γGlu(OtBu)-L-Ala]}-1,1,1-trifluoropropan-2-one]", "values": [
      {"measurement": "IC50", "value": 40, "unit": "µM"}
    ]},
    {"smiles": "CCCCCCCCC(=O)N[C@@H](CC(C)C)C(=O)NC(Cc1ccccc1)C(=O)C(F)(F)F", "note": "(mixture of isomers) [Compound 5g, 3-{N-[N-CH3(CH2)7(C?O)-L-Leu]}-4-phenyl-1,1,1-trifluorobutan-2-one]", "values": [
      {"measurement": "IC50", "value": "> 50", "unit": "µM"}
    ]}
  ]
}
